Read-outs that look alike come from different tables or passages of the source.
Tests used:
SU-DHL-4 = assay: CCK-8 tumor cell proliferation, SU-DHL-4; assay type: cell-based, Human; details: Table 19, given as number, read-out: IC50 inhibiting proliferation of tumor cells, SU-DHL-4
Protocol: (§1) The tumor cells used herein were cultured in a cell culture medium listed in table 4 at 37° C. in an incubator with 5% CO2. Prior to experimentation, all cells used were correctly identified by STR profiling, and tested negative for mycoplasma through routine screenings.
(§2) IC50 values of the compounds of the present disclosure (including the compounds in Tables 1 and 3, and compounds of examples) were measured using the Meilun Cell Counting Kit-8 kit from Dalian Meilun Biotech Co., Ltd. Assay details are as follows: tumor cells were seeded in a 96-well plate at a density listed in Table 5. After 24 h, 100 μL of the inoculated cells were treated with 0.5 μL of the compounds of the present disclosure (including the compounds in Tables 1 and 3, and compounds of examples) at 10 different successively decreasing concentrations (starting at the highest concentration of 10 μM; 5-fold serial dilutions). After the cells were treated with the compounds of the present disclosure for a period of time, the cell viability detection reagent was added to the culture medium for cell viability assessment according to the instructions provided with the CCK-8 kit. […] The growth inhibition of the compounds of the present disclosure on cells was plotted by Prism Graphpad software, and the IC50 values of the compounds of the present disclosure were calculated therefrom.

NCI-H1666 = assay: CCK-8 tumor cell proliferation, NCI-H1666; assay type: cell-based, Human; details: Table 19, given as number, read-out: IC50 inhibiting proliferation of tumor cells, NCI-H1666
Protocol: as §1, §2

Mino = assay: CCK-8 tumor cell proliferation, Mino; assay type: cell-based, Human; details: for IC50: Mino, read-out: IC50 inhibiting proliferation of tumor cells, Mino; for IC50 for inhibiting the proliferation of tumor cells, Mino: Table 7, designed based on BTK inhibitors, 72 h
Summary of the method: (§3)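 Using the CCK-8 kit, viability of plated cells is assessed after exposure to compound across ten concentrations (5-fold serial dilution, top 10 μM) added at 24 h. IC50 is obtained by curve fitting of growth inhibition.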

SW620 = assay: CCK-8 tumor cell proliferation, SW620; assay type: cell-based, Human; details: SW620, read-out: IC50 inhibiting proliferation of tumor cells, SW620
Summary of the method: as §3

JEKO-1 = assay: CCK-8 tumor cell proliferation, JEKO-1; design: species or system Human; details: Table 7, designed based on BTK inhibitors; 96 h
Protocol: as §1, §2

22RV1 = assay: CCK-8 tumor cell proliferation, 22RV1; design: species or system Human; details: Table 7, designed based on BTK inhibitors; 96 h
Protocol: as §1, §2

MM.1S = assay: CCK-8 tumor cell proliferation, MM.1S; assay type: cell-based; details: for IC50 for inhibiting the proliferation of tumor cells, MM.1S: Table 7, designed based on BTK inhibitors, 72 h
Summary of the method: as §3

NCI-H1975 = assay: CCK-8 tumor cell proliferation, NCI-H1975; assay type: cell-based, Human; details: Table 7, designed based on BTK inhibitors; 96 h
Summary of the method: as §3

Kasumi-1 = assay: CCK-8 tumor cell proliferation, Kasumi-1; assay type: cell-based, Human; details: Table 7, designed based on BTK inhibitors; 72 h
Summary of the method: as §3

CCRF-CEM = assay: CCK-8 tumor cell proliferation, CCRF-CEM; assay type: cell-based, Human; design: IC50 for inhibiting the proliferation of tumor cells, CCRF-CEM: scale not given here; details: for IC50 for inhibiting the proliferation of tumor cells, CCRF-CEM: Table 7, designed based on BTK inhibitors, 96 h
Summary of the method: as §3

MDA-MB-231 = assay: CCK-8 tumor cell proliferation, MDA-MB-231; assay type: cell-based, Human; design: IC50 for inhibiting the proliferation of tumor cells, MDA-MB-231: scale not given here; details: Table 7, designed based on BTK inhibitors; 96 h
Summary of the method: as §3

Vcap = assay: CCK-8 tumor cell proliferation, Vcap; assay type: cell-based, Human; details: for IC50 for inhibiting the proliferation of tumor cells, Vcap: Table 7, designed based on BTK inhibitors, 96 h
Summary of the method: as §3

MV-4-11 = assay: CCK-8 tumor cell proliferation, MV-4-11; assay type: cell-based, Human; details: Table 7, designed based on BTK inhibitors; 72 h
Summary of the method: as §3

THP-1 = assay: CCK-8 tumor cell proliferation, THP-1; assay type: cell-based, Human; details: Table 7, designed based on BTK inhibitors; 72 h
Protocol: as §1, §2

CAL-62 = assay: CCK-8 tumor cell proliferation, CAL-62; assay type: cell-based, Human; details: Homo sapiens, CAL-62
Summary of the method: as §3

Jurkat = assay: CCK-8 tumor cell proliferation, Jurkat; assay type: cell-based, Human; details: Homo sapiens, Table 23, compared to Comparative Example compounds, read-out: Inhibitory activity (IC50, nM) against tumor cell proliferation, Jurkat
Summary of the method: as §3

MM.1R = assay: CCK-8 tumor cell proliferation, MM.1R; assay type: cell-based; details: Table 23, compared to Comparative Example compounds, read-out: Inhibitory activity (IC50, nM) against tumor cell proliferation, MM.1R
Summary of the method: as §3

MGC-803 = assay: CCK-8 tumor cell proliferation, MGC-803; details: Homo sapiens, Table 18, FAK inhibitor based, MGC803, read-out: IC50 inhibiting proliferation of tumor cells, MGC803
Protocol: as §1, §2

Hep3B2.7-1 = assay: CCK-8 tumor cell proliferation, Hep3B2.7-1; assay type: cell-based, Human; details: Homo sapiens; Table 18, FAK inhibitor based; HEP3B2.7-1; read-out: IC50 inhibiting proliferation of tumor cells, HEP3B2.7-1
Summary of the method: as §3

SMILES: Cc1cc(-c2nc(C(=O)Nc3cc4oc(N5CCOCC5)nc4nc3N3CC[C@@H](O)C3)co2)ccn1 [emavusertib, reference compound]
- IC50 (SU-DHL-4; Homo sapiens): > 10000 nM
- IC50 (NCI-H1666; Homo sapiens): > 10000 nM
- IC50 (Mino; Homo sapiens, Table 19, given as number): > 10000 nM
- IC50 (SW620; Homo sapiens, SW-620, Table 19, given as number): > 10000 nM

SMILES: Nc1ncnc2c1c(-c1ccc(Oc3ccccc3)cc1)nn2[C@H]1CCN(Cc2ccc3c(c2)CN(C2CCC(=O)NC2=O)C3=O)C[C@H]1F (stereo partly drawn) [GT-03331, 3-(5-(((3R,4S)-4-(4-amino-3-(4-phenoxyphenyl)-1H-pyrazolo[3,4-d]pyrimidin-1-yl)-3-fluoropiperidin-1-yl)methyl)-1-oxoisoindolin-2-yl)piperidine-2,6-dione]
- IC50 for inhibiting the proliferation of tumor cells, JEKO-1 (JEKO-1): A+
- IC50 for inhibiting the proliferation of tumor cells, 22RV1 (22RV1): A+
- IC50 for inhibiting the proliferation of tumor cells, MM.1S (MM.1S): A+
- IC50 for inhibiting the proliferation of tumor cells, Mino (Mino): A+
- IC50 for inhibiting the proliferation of tumor cells, NCI-H1975 (NCI-H1975): A+
- IC50 for inhibiting the proliferation of tumor cells, Kasumi-1 (Kasumi-1): A+
- IC50 for inhibiting the proliferation of tumor cells, CCRF-CEM (CCRF-CEM): A+
- IC50 for inhibiting the proliferation of tumor cells, MDA-MB-231 (MDA-MB-231): A+
- IC50 for inhibiting the proliferation of tumor cells, Vcap (Vcap): A+
- IC50 for inhibiting the proliferation of tumor cells, MV-4-11 (MV-4-11): A+
- IC50 for inhibiting the proliferation of tumor cells, THP-1 (THP-1): A+

SMILES: Nc1ncnc2c1c(-c1ccc(Oc3ccccc3)cc1)nn2[C@@H]1CCN(Cc2ccc3c(c2)CN(C2CCC(=O)NC2=O)C3=O)C[C@H]1F (stereo partly drawn) [GT-03287, 3-(5-(((3R,4R)-4-(4-amino-3-(4-phenoxyphenyl)-1H-pyrazolo[3,4-d]pyrimidin-1-yl)-3-fluoropiperidin-1-yl)methyl)-1-oxoisoindolin-2-yl)piperidine-2,6-dione]
- IC50 for inhibiting the proliferation of tumor cells, JEKO-1 (JEKO-1): A+
- IC50 for inhibiting the proliferation of tumor cells, 22RV1 (22RV1): A+
- IC50 for inhibiting the proliferation of tumor cells, MM.1S (MM.1S): A+
- IC50 for inhibiting the proliferation of tumor cells, Mino (Mino): A+
- IC50 for inhibiting the proliferation of tumor cells, MDA-MB-231 (MDA-MB-231): A+

SMILES: Nc1ncnc2c1c(-c1ccc(Oc3ccccc3)cc1)nn2[C@H]1CCN(Cc2ccc3c(c2)CN(C2CCC(=O)NC2=O)C3=O)C[C@@H]1F (stereo partly drawn) [GT-03264, 3-(5-(((3S,4S)-4-(4-amino-3-(4-phenoxyphenyl)-1H-pyrazolo[3,4-d]pyrimidin-1-yl)-3-fluoropiperidin-1-yl)methyl)-1-oxoisoindolin-2-yl)piperidine-2,6-dione]
- IC50 for inhibiting the proliferation of tumor cells, JEKO-1 (JEKO-1): A+
- IC50 for inhibiting the proliferation of tumor cells, 22RV1 (22RV1): A+
- IC50 for inhibiting the proliferation of tumor cells, MM.1S (MM.1S): A+
- IC50 for inhibiting the proliferation of tumor cells, Mino (Mino): A+
- IC50 for inhibiting the proliferation of tumor cells, NCI-H1975 (NCI-H1975): A+
- IC50 for inhibiting the proliferation of tumor cells, MDA-MB-231 (MDA-MB-231): A+

SMILES: CC[C@@H]1[C@H](F)C(=O)N[C@@H]1COc1nccc2cc(C(N)=O)c(OC)cc12 [PF06650833, reference compound]
- IC50 (SU-DHL-4): > 10000 nM
- IC50 (NCI-H1666): > 10000 nM
- IC50 (Mino; Table 19, IRAK4 inhibitor based): 5000 to 10000 nM
- IC50 (SW620; Table 19, given as number): > 10000 nM

SMILES: Nc1ncnc2c1c(-c1ccc(Oc3ccccc3)cc1)nn2C1CCN(Cc2ccc3c(c2)CN(C2CCC(=O)NC2=O)C3=O)CC1 (centres unmarked) [GT-02742, 3-(5-((4-(4-amino-3-(4-phenoxyphenyl)-1H-pyrazolo[3,4-d]pyrimidin-1-yl)piperidin-1-yl)methyl)-1-oxoisoindolin-2-yl)piperidine-2,6-dione]
- IC50 for inhibiting the proliferation of tumor cells, JEKO-1 (JEKO-1): A+
- IC50 for inhibiting the proliferation of tumor cells, 22RV1 (22RV1): A+
- IC50 (CAL-62; Table 23, compared to Comparative Example compounds, read-out: Inhibitory activity (IC50, nM) against tumor cell proliferation, CAL-62): < 50 nM
- IC50 for inhibiting the proliferation of tumor cells, MM.1S (MM.1S): A+
- IC50 for inhibiting the proliferation of tumor cells, Mino (Mino): A+
- IC50 for inhibiting the proliferation of tumor cells, NCI-H1975 (NCI-H1975): A+
- IC50 (Jurkat): < 50 nM
- IC50 for inhibiting the proliferation of tumor cells, Kasumi-1 (Kasumi-1): A+
- IC50 (MM.1R): < 50 nM
- IC50 for inhibiting the proliferation of tumor cells, MDA-MB-231 (MDA-MB-231): A+
- IC50 for inhibiting the proliferation of tumor cells, Vcap (Vcap): A+
- IC50 for inhibiting the proliferation of tumor cells, MV-4-11 (MV-4-11): A+
- IC50 for inhibiting the proliferation of tumor cells, THP-1 (THP-1): A+

SMILES: Nc1ncnc2c1c(-c1ccc(Oc3ccccc3)cc1)nn2[C@@H]1CCN(Cc2ccc3c(c2)CN(C2CCC(=O)NC2=O)C3=O)C[C@@H]1F (stereo partly drawn) [GT-03297, 3-(5-(((3S,4R)-4-(4-amino-3-(4-phenoxyphenyl)-1H-pyrazolo[3,4-d]pyrimidin-1-yl)-3-fluoropiperidin-1-yl)methyl)-1-oxoisoindolin-2-yl)piperidine-2,6-dione]
- IC50 for inhibiting the proliferation of tumor cells, JEKO-1 (JEKO-1): A+
- IC50 for inhibiting the proliferation of tumor cells, 22RV1 (22RV1): A+
- IC50 for inhibiting the proliferation of tumor cells, MM.1S (MM.1S): A+
- IC50 for inhibiting the proliferation of tumor cells, NCI-H1975 (NCI-H1975): A+
- IC50 for inhibiting the proliferation of tumor cells, Kasumi-1 (Kasumi-1): A+
- IC50 for inhibiting the proliferation of tumor cells, CCRF-CEM (CCRF-CEM): A+
- IC50 for inhibiting the proliferation of tumor cells, MDA-MB-231 (MDA-MB-231): A+
- IC50 for inhibiting the proliferation of tumor cells, Vcap (Vcap): A+
- IC50 for inhibiting the proliferation of tumor cells, THP-1 (THP-1): A+

SMILES: CNC(=O)c1ccccc1Nc1cc(Nc2cc(C)c(C3CCN(Cc4ccc5c(c4F)CN(C4CCC(=O)NC4=O)C5=O)CC3)cc2OC(C)C)ncc1C(F)(F)F (centres unmarked) [GT-04079, 2-((2-((4-(1-((2-(2,6-dioxopiperidin-3-yl)-4-fluoro-1-oxoisoindolin-5-yl)methyl)piperidin-4-yl)-2-isopropoxy-5-methylphenyl)amino)-5-(trifluoromethyl)pyridin-4-yl)amino)-N-methylbenzamide]
- IC50 (CAL-62; Table 18, FAK inhibitor based, read-out: IC50 inhibiting proliferation of tumor cells, CAL-62): < 50 nM
- IC50 (MM.1S; Homo sapiens, MM1.S, Table 18, FAK inhibitor based, MM.1S, read-out: IC50 inhibiting proliferation of tumor cells, MM.1S): < 50 nM
- IC50 (SW620; Homo sapiens, SW-620, Table 18, FAK inhibitor based): < 50 nM
- IC50 (MGC-803): 100 to 500 nM
- IC50 (CCRF-CEM; Homo sapiens, Table 18, FAK inhibitor based, CCRF-CEM, read-out: IC50 inhibiting proliferation of tumor cells, CCRF-CEM): < 50 nM
- IC50 (Vcap; Homo sapiens, VCaP, Table 18, FAK inhibitor based, Vcap, read-out: IC50 inhibiting proliferation of tumor cells, Vcap): < 50 nM
- IC50 (Hep3B2.7-1): < 50 nM
